Source: patent publication US20220233624A9, “ANTI-CANCER AND ANTI-PROLIFERATIVE COMPOSITIONS, AND METHODS FOR THEIR USE IN TREATING CANCER” (Natreon, Inc., priority 2020, published 2022)
“And” between values parts separate entries of the source, which are not always exact repeats. Equal entries are not always repeated. Where two headings read alike, the source gives them in different places.

Columns and labels:
[1] = system: Breast Cancer PDCs, ER/PR+ Her2 equivocal (HR+); assay: Anti-proliferation assay on breast cancer HR+ PDCs; format: cell-based, human; conditions: drug alone @ 10 uM; for inhibition at 10 µM: Homo sapiens
Procedure: (§1) The outermost rows/columns of the plates were filled with PBS (pH 7.4) to avoid an edge-effect and were considered as blanks. Standardized aqueous extracts identified in Table 2 were prepared in main stock solutions by dissolving 1 mg of extract in 1 ml PBS (phosphate-buffered saline, pH 7.4). […] The plate was incubated in a CO2 incubator for 0/N incubation for 24 hours. […] Once extracts were added to incubated cells and mixed gently, the plate was given a brief spin and incubated in the CO2 incubator for 72 hours. The plate was removed from the incubator and 10 ul of detection reagent (CellTiterGlo®; Promega Corporation, Wisconsin, USA) added to each well of the 384 well plate. […] The assay described above is a two-dimensional (2D) assay.

[2] = system: colon cancer cells (cell line HT-29); assay: Anti-proliferation assay on colon cancer cells; format: cell-based; conditions: Homo sapiens
Procedure: Anti-proliferative and anti-cancer activity of extracts of this invention on non-small cell lung cancer cells and colon cancer cells were assessed generally as described in Example I and are discussed below. […] As noted throughout this application, the below data is intended to describe the present invention but not to be limiting.
Non-small cell lung cancer cells (cell line NCI-H-358) and colon cancer cells (cell line HT-29) were plated in a 384-well plate in amounts of about 1.25 k cells/well. […] Wells with untreated cells and with plain media were also included as controls. Plates passed quality control parameters.

[3] = system: Breast Cancer PDCs, ER/PR− Her2+ (Her2+); assay: Anti-proliferation assay on breast cancer Her2+ PDCs; format: cell-based, human; conditions: drug alone @ 10 uM; 10 µM
Procedure: as §1

[4] = system: Histiocytic lymphoma (U-937) cells; assay: Anti-proliferation assay on histiocytic lymphoma cells; format: cell-based; conditions: Homo sapiens
Procedure: Cells were plated at 1.25 k/well in 384 well plates. […] Anti-proliferative assays were generally performed as described in Example I above, in triplicate, with detection reagent CellTiterGlo. Tables 98-99 show data for controls for assays on histiocytic lymphoma (U-937) cells, and that the data passed quality control parameters. Tables 101-102 show data for controls for assays on pancreatic cancer (Panc-1) cells, and that the data passed quality control parameters. […] The assay is generally as described in Example I.

[5] = system: Breast Cancer PDCs, Triple negative (TN), SB 36344; assay: Anti-proliferation assay on breast cancer TN PDCs; format: cell-based, human; conditions: drug alone @ 10 uM; for inhibition at 10 µM: Homo sapiens
Procedure: as §1

[6] = system: Glioma SB 32833 Glioblastoma Grade IV patient derived cells; assay: Anti-proliferation assay on glioma PDCs SB 32833; format: cell-based; conditions: Homo sapiens, drug @ 10 uM
Procedure: The anti-cancer activity of AyuFlex®, Capros®, and Ayuric® was further tested on two other glioma PDCs taken from 2-3 different subjects (SB 6129, SB 32833 (person)). […] Also, the anti-cancer activity of AyuFlex®, Capros®, and Ayuric® was further tested on existing glioblastoma cell line U87 MG, to allow comparisons with other compositions known in the art. AyuFlex®, Capros®, and/or Ayuric® were incubated with the new PDC lines and the U87 MG cell line for 72 hours, as described in Example I above.
Table 68 relates to FIG. 31, a graph showing the efficacy of AyuFlex®, Capros®, and/or Ayuric® on Glioma SB 32833 Glioblastoma Grade IV patient derived cells, in a combination study.

[7] = read-out: % Inhibition, single replicates

COc1cccc2c1C(=O)c1c(O)c3c(c(O)c1C2=O)C[C@@](O)(C(=O)CO)C[C@@H]3O[C@H]1C[C@H](N)[C@H](O)[C@H](C)O1 [Doxorubicin, doxorubicin]
inhibition at 10 µM ([1]; read-out: % Inhibition Avg): 78% | inhibition at 10 µM [1, 7]: 75% | % Inhibition Avg ([1]; 10 µM): 77% | % Inhibition, single replicates ([1]; 10 µM): 81% | inhibition at 10 µM ([2]; drug 10 uM, read-out: inhibition of proliferation): 94% | inhibition at 10 µM ([2]; plate control @ 10 uM, read-out: % Inhibition Average (SD)): 94% | inhibition at 10 µM ([2]; plate control @ 10 uM, read-out: % Inhibition n1): 94% | inhibition at 10 µM ([2]; plate control @ 10 uM, read-out: % Inhibition n2): 93% | inhibition at 10 µM ([2]; plate control @ 10 uM, read-out: % Inhibition n3): 94% | % Inhibition Avg [3]: 60% and 96% | % Inhibition, single replicates [3]: 62% and 58% and 95% and 97% | inhibition at 10 µM ([4]; 10 uM, 72 h, read-out: % Inhibition Average (SD)): 100% | inhibition at 10 µM ([4]; 10 uM, 72 h, read-out: % Inhibition n1): 100% | inhibition at 10 µM ([4]; 10 uM, 72 h, read-out: % Inhibition n2): 100% | inhibition at 10 µM ([4]; 10 uM, 72 h, read-out: % Inhibition n3): 100% | inhibition at 10 µM ([4]; drug 10 uM, read-out: inhibition): 100% | inhibition at 10 µM ([5]; read-out: % Inhibition Avg): 73% | inhibition at 10 µM [5, 7]: 73% | % Inhibition Avg ([5]; 10 µM): 93% | % Inhibition, single replicates ([5]; 10 µM): 72% and 91% and 92% | inhibition at 10 µM ([6]; read-out: % Inhibition Avg): 87% | inhibition at 10 µM ([6]; read-out: % Inhibition n1): 91% | inhibition at 10 µM ([6]; read-out: % Inhibition n2): 86% | inhibition at 10 µM ([6]; read-out: % Inhibition n3): 86%
